Entries after “also recorded” stand apart in the source; their conditions may differ.
Experiments:
[1] = test system: IL 12 secretion by splenic macrophages; test: IL 12 secretion by LPS-stimulated splenic macrophages; type: cell-based; conditions: mouse splenic macrophages, 5 ug/ml LPS, varying doses, 72 hr; FIG. 1A
Protocol: The effects of these three tyrphostins on the secretion of pro-inflammatory cytokines from macrophages were compared. Mouse splenic macrophages were stimulated with 5 ugh/ml lipopolysaccharide (LPS) and treated with varying doses of tyrphostins. The cells were cultured for 72 hr and the amount of IL 12 and nitric oxide was measured. […] Similar results were obtained with respect to nitric oxide levels, with tyrphostin A1 (FIG. 1B) showing good results.

[2] = test system: mitogen stimulated splenic T cells; test: T cell proliferation induced by IL 2; type: cell-based, mouse; conditions: stimulated with 1 U/ml IL 2
[3] = test system: mitogen stimulated splenic T cells; test: T cell proliferation induced by IL 12; type: cell-based, mouse; conditions: stimulated with 10 U/ml IL 12
leukemic cells = conditions: acute lymphoblastic leukemia; background statement; cited from earlier work
Solubility (Table A) = type: physicochemical; conditions: solvents in which the compound is soluble
NOD mice = test: Hypoglycemic effect in non-obese diabetic (NOD) mice; type: in vivo, mouse; conditions: daily oral administration, treatment mode, vs vehicle; FIG. 5
Protocol: The hypoglycemic effect of Compound 2 (water-soluble analog of A1) was evaluated in the treatment mode in non-obese diabetic (NOD) mice.

septic shock = conditions: background statement; cited from earlier work

Structure (SMILES) | inhibition of IL 12 secretion [1] | inhibition of T cell proliferation [2] | inhibition of T cell proliferation [3] | SOLUBILITY (Solubility (Table A)) | further results
N#C/C(=C\c1ccc(O)c(O)c1)C(=O)NCc1ccccc1 [Tyrphostin B42] | inhibited IL 12 production | inhibited T cell proliferation | inhibited T cell proliferation |  | prevention of growth of leukemic cells (leukemic cells): effective in preventing the growth of leukemic cells
CCOC(=O)COc1ccc(C=C(C#N)C#N)cc1 [Compound 6] |  |  |  | Chloroform Ethanol (warm) | 
N#CC(C#N)=Cc1ccc(OCC(=O)[O-])cc1.[Na+] [Compound 5] |  |  |  | Water | 
N#CC(C#N)=Cc1ccc(O)cc1 [Compound 7] |  |  |  | Ethanol Acetone | 
N#CC(C#N)=Cc1ccc(C(=O)[O-])cc1.[Na+] [Compound 2, Sodium 1-cyano-3-(4-carboxy-phenyl)-acrylonitrile] |  |  |  | Water | effect on blood glucose level (NOD mice): significant effect on blood glucose level; also recorded: lowering blood glucose level
N#CC(C#N)=Cc1ccc([N+](=O)[O-])c(O)c1 [Tyrphostin A10] | inhibited IL 12 production | did not show any significant inhibition | did not show any significant inhibition |  | protection in septic shock (septic shock): protective in septic shock

From patent US6555702B2, “Protein kinase inhibitor” (Calyx Therapeutics, Inc., priority 1997, dated 2003)
